Results from doi:10.1101/2023.02.27.530254, “Large library docking for cannabinoid-1 receptor agonists with reduced side effects” (bioRxiv, 2024).
Like-named read-outs stand apart in the source and are kept apart here.

Columns and labels:
[1] = target: T1, CB1 (Rattus norvegicus, UniProt P20272); test: Radioligand competition binding with [3H]-CP-55,940, rat brain membranes; conditions: for Emax / rCB1 binding Emax [SEM]: maximal radioligand displacement; for Emax: read-out: rCB1 binding Emax [SEM]; for Ki / rCB1 binding pKi [95% CI]: [3H]-CP-55,940 competition, rat brain membranes; for % [3H]-CP-55,940 displacement (mean) from single point screen: screens at 10 μM (white cells), 1 μM (orange) or 300 nM (green), cell colours not visible
T1 construct: membrane preparations from rat brain (source of CB1); tissue Bioivt RAT00BRAINMZN; host or cells: rat brain
T1 sequence (P20272 whole entry): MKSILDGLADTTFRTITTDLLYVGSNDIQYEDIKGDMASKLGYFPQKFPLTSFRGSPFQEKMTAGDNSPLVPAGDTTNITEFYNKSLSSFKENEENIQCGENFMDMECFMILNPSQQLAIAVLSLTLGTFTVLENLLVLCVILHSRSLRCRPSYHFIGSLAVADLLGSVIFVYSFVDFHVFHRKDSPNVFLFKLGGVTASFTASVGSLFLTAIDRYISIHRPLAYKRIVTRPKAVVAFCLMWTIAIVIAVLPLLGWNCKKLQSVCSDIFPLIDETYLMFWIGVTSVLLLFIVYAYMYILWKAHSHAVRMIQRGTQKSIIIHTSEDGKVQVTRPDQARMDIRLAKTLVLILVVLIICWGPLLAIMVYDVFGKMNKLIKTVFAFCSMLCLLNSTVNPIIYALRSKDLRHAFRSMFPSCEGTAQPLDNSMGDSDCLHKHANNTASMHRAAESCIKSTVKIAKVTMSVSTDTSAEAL
Description: The results were analyzed using nonlinear regression to determine the IC50 and Ki values for each ligand (Prism by GraphPad Software, Inc., San Diego, CA). The Ki values are expressed as the mean of two to three experiments each performed in triplicate.

[2] = target: hCB1 (Homo sapiens, UniProt P21554); test: bioSens-All ebBRET effector biosensor signaling profiling, HEK293; format: cell-based; set-up: host or cells: HEK293 (HEK293SL clone), transient
Chain of hCB1 (P21554 whole entry, the tested form may be a part): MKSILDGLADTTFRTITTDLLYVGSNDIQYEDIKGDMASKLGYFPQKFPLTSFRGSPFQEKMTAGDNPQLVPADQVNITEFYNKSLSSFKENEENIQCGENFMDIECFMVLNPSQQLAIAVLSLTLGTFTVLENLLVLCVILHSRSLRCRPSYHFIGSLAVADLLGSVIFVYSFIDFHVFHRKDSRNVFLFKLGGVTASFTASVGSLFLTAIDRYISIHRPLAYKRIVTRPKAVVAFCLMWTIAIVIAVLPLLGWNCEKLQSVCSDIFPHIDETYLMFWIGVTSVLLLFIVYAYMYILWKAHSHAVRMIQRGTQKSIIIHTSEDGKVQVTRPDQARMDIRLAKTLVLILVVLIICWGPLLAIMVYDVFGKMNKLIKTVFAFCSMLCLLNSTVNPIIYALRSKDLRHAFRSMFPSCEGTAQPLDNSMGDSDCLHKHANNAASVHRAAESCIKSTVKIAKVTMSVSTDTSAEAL
Description: ebBRET-based effector membrane translocation biosensor assays were conducted at Domain Therapeutics NA Inc. (Montreal, QC, Canada) as previously described. […] HEK293 cells were maintained in Dulbecco’s Modified Eagle Medium (DMEM) (Wisent) supplemented with 1% penicillin- streptomycin (Wisent) and 10% (or 2 % for transfection) fetal bovine serum (Wisent) at 37°C with 5% CO2. All biosensor-coding plasmids and related information are the property of Domain Therapeutics NA Inc. The total amount of transfected DNA was adjusted and kept constant at 1 μg per mL of cell culture to be transfected using salmon sperm DNA (Invitrogen) as ‘carrier’ DNA, PEI (polyethylenimine 25 kDa linear, PolyScience) and DNA (3:1 ml PEI:mg DNA ratio) were first diluted separately in 150 mM NaCl then mixed and incubated for at least 20 minutes at room temperature to allow for the formation of DNA/PEI complexes. During the incubation, HEK293 cells were detached, counted, and re-suspended in maintenance medium to a 350,000 cells per mL density. At the end of the incubation period, the DNA/PEI mixture was added to the cells. Cells were finally distributed in 96-well plates (White Opaque 96-well /Microplates, Greiner) at a density of 35,000 cells per well. Forty-eight hours post-transfection, medium was aspirated and replaced with 100 μl of Hank’s Balanced Salt Solution buffer (HBSS) (Wisent) per well using 450-Select TS Biotek plate washer. After 60 min incubation in this medium, 10 μL of 10 μM e-Coelenterazine Prolume Purple (Methoxy e-CTZ) (Nanolight) was added to each well for a final concentration of 1 μM immediately followed by addition of increasing concentrations of the test compounds to each well using the HP D300 digital dispenser (Tecan). All compounds were assayed at 22 concentrations with each biosensor after a 10-minute room temperature incubation period. […] All BRET ratios were standardized using the universal BRET (uBRET) equation: uBRET=BRETratio-A/B-A×10,000 where A is the BRET ratio obtained from transfection of negative control and B is the BRET ratio obtained from transfection of positive control. […] The data were analyzed using the four-parameter logistic non-linear regression model in GraphPad Prism 9.1 and data were presented as means ± CIs of 1–4 independent experiments.
The SEM was calculated for the logEmax/EC50 ratios using the following equation: SEM=σ/n where σ is the standard deviation, and n is the number of experiments.

[3] = HEK293, read-out: hCB1 Gi1 Emax [95% CI]
[4] = HEK293, read-out: hCB1 GoB Emax [95% CI]
[5] = HEK293, read-out: hCB1 Gz Emax [95% CI]
[6] = hCB1 Gi1 EC50 [95% CI], Gi1 sensor
[7] = hCB1 GoB EC50 [95% CI], GoB sensor
[8] = read-out: rCB1 binding Ki [95% CI]

COC(=O)[C@@H](c1cccs1)N(C)C(=O)c1cc(C)n(-c2cccc(C(F)(F)F)c2)n1 [‘6000]
Emax [1]: 96%
Ki ([1]; rCB1 binding Ki [95% CI]): 1.46 µM

Cc1cc(C(=O)NC(C)(c2ccccc2)c2ccco2)nn1-c1cccc(C(F)(F)F)c1 (stereo not shown) [‘5806]
Emax [1]: 100%
Ki ([1]; rCB1 binding Ki [95% CI]): 0.008 µM

Cc1nc(CC2CC2)oc1-c1nc(Cc2cc3c(cc2Br)OCO3)no1 [‘7019]
Ki ([1]; rCB1 binding Ki [95% CI]): 4.04 µM

Cc1cc(C(=O)NC(C)(c2ccco2)c2ccco2)nn1-c1cccc(C(F)(F)F)c1 [‘4936]
Emax [1]: 88%
Ki ([1]; rCB1 binding Ki [95% CI]): 0.0075 µM

Cc1cc(C(=O)NC(c2ccco2)c2ccco2)nn1-c1cccc(C(F)(F)F)c1 [‘1090]
Emax [2, 3]: 81%
Emax [2, 4]: 90%
Emax [2, 5]: 115%
EC50 [2, 6]: 0.0356 µM
EC50 ([2]; hCB1 Gi1 pEC50 [95% CI], Gi1 sensor): 0.0316 µM
EC50 [2, 7]: 0.0373 µM
EC50 ([2]; hCB1 Gz EC50 [95% CI]): 0.126 µM
Emax [1]: 99%
Ki ([1]; rCB1 binding Ki [95% CI]): 0.0908 µM

COC(=O)[C@@H]1[C@@H]2CCC[C@@H]2CN1C(=O)c1nn(-c2cccc(C(F)(F)F)c2)c2c1CCC2 [10_17]
% [3H]-CP-55,940 displacement (mean) from single point screen [1]: 98.24%

COC(=O)C(c1ccco1)N(C)C(=O)c1cc(C)n(-c2cccc(C(F)(F)F)c2)n1 (stereo not shown) [‘6425]
Emax [1]: 108%
Ki ([1]; rCB1 binding Ki [95% CI]): 0.934 µM

Cc1cc(C(=O)N2CC3(CCC3)[C@H]2[C@@H]2CCCO2)nn1-c1cccc(C(F)(F)F)c1 [‘3737a]
Emax [2, 3]: 98%
Emax [2, 4]: 118%
Emax [2, 5]: 140%
EC50 ([2]; hCB1 Gi1 EC50 [95% CI]): 2.8 µM
EC50 ([2]; hCB1 GoB EC50 [95% CI]): 6.73 µM
EC50 ([2]; hCB1 Gz EC50 [95% CI]): 2.47 µM
EC50 ([2]; hCB1 Gz pEC50 [95% CI]): 2.51 µM

Cc1cc(C(=O)N2CC3(CCC3)[C@@H]3COC[C@@H]32)nn1-c1cccc(C(F)(F)F)c1 [10_14]
% [3H]-CP-55,940 displacement (mean) from single point screen [1]: 91.30%

CC(=O)C(c1cccs1)N(C)C(=O)c1cc(C)n(-c2cccc(C(F)(F)F)c2)n1 (stereo not shown) [‘6829]
Emax [2, 3]: 68%
Emax [2, 4]: 49%
Emax [2, 5]: 70%
EC50 ([2]; hCB1 Gi1 EC50 [95% CI]): 4.06 µM
EC50 ([2]; hCB1 GoB EC50 [95% CI]): 1.01 µM
EC50 ([2]; hCB1 Gz EC50 [95% CI]): 1.35 µM
Emax [1]: 106%
Ki ([1]; rCB1 binding Ki [95% CI]): 1.05 µM

Cc1cc(C(=O)N(C)C(c2ccccc2)c2ccco2)nn1-c1cccc(C(F)(F)F)c1 (stereo not shown) [‘1082]
Emax [1]: 94%
Ki ([1]; rCB1 binding Ki [95% CI]): 0.85 µM

N#Cc1cccc(OCc2ccoc2C(=O)OCC2CSc3ccccc3O2)c1 (stereo not shown) [compound 5424]
Emax [1]: 104%
Ki ([1]; rCB1 binding Ki [95% CI]): 0.876 µM
% [3H]-CP-55,940 displacement (mean) from single point screen ([1]; listed as 7019_31): 80.66%

COC(=O)C(NC(=O)c1cc(-c2ccccc2)n(-c2cccc(C(F)(F)F)c2)n1)c1cccs1 (stereo not shown) [‘8079]
Emax [1]: 104%
Ki ([1]; rCB1 binding Ki [95% CI]): 0.0185 µM

Cc1nn(Cc2ccc(Cl)cc2)c(C)c1C(=O)OCC1CSc2ccccc2O1 (stereo not shown) [‘5463]
Emax [2, 3]: 31%
Emax [2, 4]: 32%
EC50 ([2]; hCB1 Gi1 EC50 [95% CI]): 4.94 µM
EC50 ([2]; hCB1 GoB EC50 [95% CI]): 7.47 µM
Emax [1]: 88%
Ki ([1]; rCB1 binding Ki [95% CI]): 0.825 µM

Cc1cc(C(=O)N(C)C(c2ccco2)c2ccco2)nn1-c1cccc(C(F)(F)F)c1 [‘4388]
rCB1 binding pKi [95% CI] [1]: 5.9 [5.7 – 6.0]
rCB1 binding Emax [SEM] [1]: 113%
Ki [1, 8]: 1.36 µM

Cc1cc(C(=O)N2CC3(CCC3)[C@H]2[C@H]2CCCO2)nn1-c1cccc(C(F)(F)F)c1 [‘3737b]
Emax [2, 3]: 89%
Emax [2, 4]: 152%
Emax [2, 5]: 231%
EC50 ([2]; hCB1 Gi1 EC50 [95% CI]): 3.03 µM
EC50 ([2]; hCB1 GoB EC50 [95% CI]): 19.8 µM
EC50 ([2]; hCB1 Gz EC50 [95% CI]): 30.8 µM

COC(=O)[C@@H]1[C@@H]2CC[C@@H]2CN1C(=O)c1cc(C)n(-c2cccc(C(F)(F)F)c2)n1 [‘6448]
hCB1 Gi1 pEC50 [95% CI] ([2]; Gi1 sensor): 6.5 [6.4 – 6.5]
hCB1 Gi1 Emax [95% CI] ([2]; Gi1 sensor, normalized to CP-55,940): 87 [86 – 88]
hCB1 GoB pEC50 [95% CI] ([2]; GoB sensor): 6.5 [6.4 – 6.6]
hCB1 GoB Emax [95% CI] ([2]; GoB sensor, normalized to CP-55,940): 90 [87 – 91]
hCB1 Gz pEC50 [95% CI] ([2]; Gz sensor): 6.1 [5.9 – 6.4]
hCB1 Gz Emax [95% CI] ([2]; Gz sensor, normalized to CP-55,940): 151 [130 –172]
EC50 ([2]; read-out: hCB1 Gi1 EC50 [95% CI], Gi1 sensor): 0.345 µM
EC50 ([2]; read-out: hCB1 GoB EC50 [95% CI], GoB sensor): 0.31 µM
EC50 ([2]; read-out: hCB1 Gz EC50 [95% CI], Gz sensor): 0.728 µM
rCB1 binding pKi [95% CI] [1]: 6.1 [5.9 – 6.3]
rCB1 binding Emax [SEM] [1]: 103%
Ki [1, 8]: 0.866 µM

COC(=O)C(NC(=O)c1cc(C)n(-c2cccc(C#N)c2)n1)c1ccsc1 (stereo not shown) [‘31604]
Emax [1]: 100%
Ki ([1]; rCB1 binding Ki [95% CI]): 0.801 µM

Cc1c(C(=O)OCC2CSc3ccccc3O2)cnn1Cc1ccccc1 (stereo not shown) [‘7800]
Emax [2, 3]: 34%
Emax [2, 4]: 21%
EC50 ([2]; hCB1 Gi1 EC50 [95% CI]): 6.79 µM
EC50 ([2]; hCB1 GoB EC50 [95% CI]): 0.597 µM
Ki ([1]; rCB1 binding Ki [95% CI]): 1.01 µM

Cc1cc(C(=O)NC(c2ccccc2)c2ccco2)nn1-c1cccc(C(F)(F)F)c1 (stereo not shown) [‘1081]
Emax [2, 3]: 49%
Emax [2, 4]: 45%
Emax [2, 5]: 72%
EC50 ([2]; hCB1 Gi1 EC50 [95% CI]): 0.15 µM
EC50 [2, 7]: 0.0917 µM
EC50 ([2]; hCB1 Gz EC50 [95% CI]): 0.225 µM
EC50 ([2]; hCB1 Gz pEC50 [95% CI]): 0.2 µM
Emax [1]: 96%
Ki ([1]; rCB1 binding Ki [95% CI]): 0.116 µM

CCCCCCC(C)(C)c1cc(O)c2c(c1)OC(C)(C)C1CCC(=O)CC21 (stereo not shown) [Nabilone, reference compound]
Emax [1]: 81%
Ki ([1]; rCB1 binding pKi [95% CI]): 0.00251 µM

CC(=O)C(C)(NC(=O)c1cc(C)n(-c2cccc(C(F)(F)F)c2)n1)c1cccs1 (stereo not shown) [‘4156]
Emax [1]: 91%
Ki ([1]; rCB1 binding Ki [95% CI]): 0.0135 µM

Cc1cc(C(=O)NC(c2ccccc2)c2ccco2)nn1-c1cccc(C#N)c1 (stereo not shown) [‘12565]
Emax [2, 3]: 28%
Emax [2, 4]: 25%
Emax [2, 5]: 51%
EC50 [2, 6]: 0.104 µM
EC50 [2, 7]: 0.0448 µM
EC50 ([2]; hCB1 GoB pEC50 [95% CI], GoB sensor): 0.0398 µM
EC50 ([2]; hCB1 Gz EC50 [95% CI], Gz sensor): 0.0546 µM
Emax [1]: 97%
Ki ([1]; rCB1 binding Ki [95% CI]): 0.301 µM

Cn1nc(-c2nnc(C(C)(C)Oc3ccc(C(F)(F)F)cc3)o2)c2ccccc2c1=O [‘2153]
Emax [2, 3]: 89%
Emax [2, 4]: 109%
EC50 ([2]; hCB1 Gi1 EC50 [95% CI]): 1.01 µM
EC50 ([2]; hCB1 GoB EC50 [95% CI]): 2.06 µM
Emax [1]: 82.6%
Ki ([1]; rCB1 binding Ki [95% CI]): 0.163 µM

COC(=O)[C@H](c1cccs1)N(C)C(=O)c1cc(C)n(-c2cccc(C(F)(F)F)c2)n1 [‘1066]
Emax [1]: 97%
Ki ([1]; rCB1 binding Ki [95% CI]): 1.72 µM
